# Assay results as given in patent US10568854B2, “Compositions and methods for treating kabuki syndrome and related disorders” (THE JOHNS HOPKINS UNIVERSITY, priority 2014, dated 2020).
# Entries after “also recorded” stand apart in the source; their conditions may differ.
# Key:
# [1] = tested on: genome-wide H3K4me3 in spleen cells; test: ChIP-seq of H3K4me3 in spleen cells; assay type: in vivo, mouse; settings: 10 mg/kg/day, Kmt2d^+/βGeo mice
# Procedure: ChIP-seq: Spleens were dissected from eight mice, four from each kmt2d genotype (+/βGeo or +/+) where half of each genotype was treated with AR-42 and half with vehicle only. Spleens were minced and passed through a […] cell strainer to obtain single cell suspensions. 10 million cells were used for each ChIP-seq experiment following the native chromatin immunoprecipitation protocol, as previously described (Gilfillan et al. (2012) BMC Genomics 13:645), using a ChIP-grade antibody against H3K4me3 (9727, Cell Signaling Technology, Beverly, Mass.).
# ChIP-seq data analysis: Sequencing was performed using a MiSeq system (Illumina, San Diego, Calif.). 4.8-9.6 million paired-end 26 by reads were obtained per sample (Table 2; nReads=number of reads, alignRate=fraction aligned to genome; FRIP=fraction of reads in peaks). Reads were aligned to the m. musculus genome, version mm10, using Bowtie 2 (Langmead and Salzberg (2012) Nat. Methods. 9: 357-9). Each sample was examined with regard to alignment rate as well as FRIP (fraction of reads in peaks), a measure of the ChIP efficiency (Table 2). […] For analysis, reads were merged into one meta-sample and peak calling was performed using MACS version 1.4.2 (Zhang et al. (2008) Genome Biol. 9: R137). […] This created a peak by sample matrix of read counts. […] Fold change and overall abundance was calculated as per edgeR. […]
# [2] = tested on: H3K4 trimethylation activity in Kmt2d^+/βGeo and Kmt2d^+/+ MEFs; test: H3K4me3 indicator in murine embryonic fibroblasts (MEFs); assay type: cell-based, mouse
# Description: An H3K4 trimethylation reporter was also created. This reporter is based on the H3 tail on one end and the TBP associated factor III (TAFIII) homeodomain on the other end; the TAFIII homeodomain only identifies and binds to trimethylated K4 on H3. When the H3K4 site gets trimethylated, the TAFIII homeodomain can bind to the modified H3 tail and bring the two parts of the separated GFP in close proximity. The activity of the epigenetic modification system can be quantified through fluorescence.
# Epigenetic reporter alleles: Epigenetic reporter alleles were synthesized (OriGene, Rockville, Md.) using published sequences for component elements (Baird et al. (1999) Proc. Nail. Acad. Sci. 96:11241-6; Souslova et al. (2007) BMC Biotechnol. 7:37). Single nucleotide mutations were created using the QuickChange Lightening kit (Agilent Technologies Inc, Santa Clara, Calif.). For H4ac indicator, K5R, K8R, K12R, K16R and K20R (MUT indicator) were introduced. For H3K4me3 indicator, K4Q and D890A/W891A and M882A (three separate constructs) were introduced. For transient transfections, mouse embryonic fibroblasts (see below) were transfected with Fugene HD (Promega, Madison, Wis.), 48 hours prior to FACS. […] For drug stimulation, drug was added to the media 24 hours prior to FACS. For stable transfections in T293 (American Type Culture Collection) cells, 10 μg/ml of Blastocidin (Life Technologies, Carlsbad, Calif.) was added to the media for several weeks. For stable transfection in MEFs, the reporter was transferred to a ViraPower Lentiviral Expression System (Life Technologies, Carlsbad, Calif.). After selection with Blastocidin, the drug of interest was added 24 hours prior to FACS. SAHA, AR-42 and MS275 were purchased from Selleck (Selleck Chemicals, Houston, Tex.). […] FACS data were analyzed using FlowJo (Tree Star Inc, Ashland, Oreg.). A plasmid expressing HDAC3 was acquired from Addgene (Cambridge, Mass., plasmid 13819) and transfected into a stable cell line carrying the H4 acetyl reporter allele.
smiles,measurement,setting,value
"CC(C)[C@H](C(=O)Nc1ccc(C(=O)NO)cc1)c1ccccc1 [AR-42, (S)—N-hydroxy-4-(3-methyl-2-phenylbutanamido)benzamide]",genome-wide H3K4me3 (ChIP-seq),[1],genome-wide increase in H3K4me3; also recorded: improved
same,dose at which Kmt2d^+/βGeo MEFs achieve untreated wild-type levels of H3K4me3 indicator activity,[2]; Kmt2d^+/βGeo MEFs,5 µM
same,H3K4 trimethylation activity,[2]; Kmt2d^+/βGeo cells treated with HDAC inhibitor,enhanced
same,H3K4me3 indicator activity in MEFs,"[2]; both genotypes (Kmt2d^+/βGeo, Kmt2d^+/+)",dose-dependent response
